# Reference: patent publication US11199553B2, “25-OH vitamin D derivatives for determining vitamin D metabolites” (ORGENTEC D[…], priority 2013, dated 2021)
# Tested on: 25OHD antibody
# Details: even at a 25OHD3 concentration of 5 ng/ml; 7.5 ng/ml tracer; vitamin D-free serum matrix; OD 450 nm
# Experimental: For the ELISA detection of the specific 25OHD competition, 80 μl of vitamin D release reagent were added to serial dilutions of 25OHD3 in vitamin D-free serum matrix (SerCon, Seracare Inc.) in concentrations of 0, 5, 10, 20, 20, 50, 100, 200, 300 ng/ml in the presence of 7.5 ng/ml of biotin-25OHD tracer reagent and applied to microtitre plate wells coated with an anti-25OHD antibody. The binding of the tracer on the basis of the competing 25OHD concentration was determined with peroxidase-labelled streptavidin and a tetramethylbenzidine (TMB) colour reaction by measuring the OD 450 nm.
# An antibody against 25-OH-vitamin D3 or 25-OH-vitamin D2 was diluted in Tris-buffered saline pH 8.0 to a concentration of 1 μg/ml. The wells of a microtitre plate (Maxisorb, Nunc) were coated with 100 μl of the diluted antibody, dried at 37° C. and stored at 4° C. until the test was carried out.
# Defined concentrations of 25-OHD3 were added to vitamin D-free serum matrix (Seracon, Seracare Inc.). […] The antibody-bound biotin-25OHD tracer was detected with peroxidase-labelled streptavidin and a tetramethylbenzidine (TMB) colour reaction. After the substrate reaction had been stopped by addition of 100 μl of 50 mM phosphoric acid, the optical density was measured at 450 nm.
substance,measurement,value
3α-[α-biotinamido-ω-dodeca(ethylene glycol)-amido]-25-hydroxy-deoxyvitamin D3 [VD1],competition of the tracer by 25OHD3 for binding sites on the 25OHD antibody,specific competition
